The subject of assay [1] is A549 human lung cancer cell line. As to the kind of experiment: In vitro cytotoxicity (MTT), A549. The settings on record: A549, 72 h. The format is cell-based. As to the method: (§1) Metabolic activity was measured by the cells' ability to reduce the tetrazolium dye, 3-(4,5-dimethylthiazol-2-yl)-2,5-diphenyltetrazolium bromide (MTT), to a quantifiable colored formasan derivative. Surviving cells reduce the MTT dye. The inhibitory concentrations of killing 50% of the cells (IC50 s) were calculated. Testing was in accord with the following protocol:
(§2) Test compounds and a reference antineoplastic agent, ADRIAMYCIN (doxorubicin hydrochloride), were dissolved in dimethyl sulfoxide (DMSO) and diluted, first with Earle's Balanced Salt Solution, followed by culture medium, to twice the highest concentration of the compound to be tested. From this concentrated stock, two-fold serial dilutions were prepared in 96-well microtiter trays, each well containing twice the desired final concentration of the compound. Each concentration was tested in triplicate and compared to triplicate drug-free controls.
(§3) The cells were grown in the same medium used for diluting the compounds. Adherent cells were harvested by trypsinization according to the following procedure:
(§4) After harvesting by trypsinization, viable cell counts were determined and cell density was adjusted to 25,000 cells/mL. Inoculum (0.1 mL) was then added to each well for a final concentration of 2,500 cells per well. Addition of the inoculum was used to dilute the test compounds to the desired concentration.
(§5) Microtiter trays were incubated for three days at 36° C. in a humidified atmosphere containing 5% carbon dioxide.
(§6) After three days, 20 microliters of 5 mg/mL MTT in phosphate-buffered solution were added to each well of the microtiter trays. The microtiter trays were then returned to the incubator for two to four hours to allow the surviving cells to reduce the dye. After this incubation, both the medium and the unreduced dye were removed by aspiration. DMSO was added to each well to dissolve the water-insoluble, colored end product of the dye reduction for spectrophotometric measurement at 570 nm.
(§7) The results obtained which clearly show the cytotoxicity of the compounds of Examples 5, 6, 7 and 8 against […] tumor cell lines A549, HCT-8, HT-29 and P388-D1, are illustrated in Table 1. (A549 is a human lung cancer cell line; HCT-8 is a human colon cancer cell line; HT-29 is a human colon cancer cell line; and P388-D1 is a mouse leukemia cell line.)

In assay [2] the test system is HT-29 human colon cancer cell line. Put plainly: In vitro cytotoxicity (MTT), HT-29. It counts as cell-based. The note with it: HT-29, 72 h. As to the method:
as §1, §2, §3, §4, §5, §6, §7

Assay [3] relates to P388 mouse leukemia cell line. As to the kind of experiment: In vitro cytotoxicity (MTT), P388. It counts as cell-based. The note with it: P388, 72 h, read-out: In Vitro Cytotoxicity (IC50). The method, then: as §1, §2, §3, §4, §5, §6
(§8) Compounds from Examples 4, 6, 8, 9 and 10 were additionally tested against human and murine tumor cell lines A549, HT-29, P388-D1, P388, P388-ADR(0.0), P388-ADR(0.1) and B16F109. (P388 is a mouse leukemia cell line similar to P388-D1, but animal-passaged; P388-ADR (0.0) is an ADRIAMYCIN-resistant variant of P388, the inoculum of which is grown in drug-free medium; P388-ADR (0.1) is an ADRIAMYCIN-resistant variant of P388, the inoculum of which is grown in medium with 0.1 mcg.ml ADRIAMYCIN; and B16F10 is a mouse melanoma.) The results are presented in Table 2; as shown in the table, the compounds of the present invention are effective cytotoxic agents even against the ADRIAMYCIN-resistant cell line P388-ADR.

Assay [4] has as its system P388-ADR(0.0), ADRIAMYCIN-resistant variant of P388. As to the kind of experiment: In vitro cytotoxicity (MTT), P388-ADR(0.0). The format is cell-based. The note with it: Mus musculus, 72 h, inoculum grown in drug-free medium, Table 2. The method, then: as §1, §2, §3, §4, §5, §6, §8
A further assay concerns B16F10 mouse melanoma. Put plainly: In vitro cytotoxicity (MTT), B16F10. It counts as cell-based. The note with it: B16-F10, 72 h, read-out: In Vitro Cytotoxicity (IC50). As to the method:
as §1, §2, §3, §4, §5, §6, §8

Assay [5] deals with P388-D1 mouse leukemia cell line. Put plainly: In vitro cytotoxicity (MTT), P388-D1. The format is cell-based. The settings on record: Mus musculus, P388D1, 72 h, read-out: In Vitro Cytotoxicity (IC50), P388-D1. The method, then:
as §1, §2, §3, §4, §5, §6, §7

Assay [6] concerns C-26 colon adenocarcinoma. Put plainly: In vivo activity against C-26 implanted intraperitoneally (Example 44). The arrangement: species or system mouse. The method, then:
(§9) The title compound of Example 37 above was tested against solid tumors in mice, using 1,3-bis(2-chloroethyl)-1-nitrosourea (BCNU) as a positive control. The tumor lines were M5076, an ovarian sarcoma implanted intraperitoneally (IP), and C-26, a colon adenocarcinoma, implanted intraperitoneally (IP) and subcutaneously (SC) in separate trials.
(§10) All drugs were administered in 5% aqueous dextrose or other suitable diluent. Drug efficacy was determined by prolonged survival times of the test animals or reduced tumor mass as compared to negative controls. Test groups consisted of 10 mice. Control groups consisted of 20 mice. Animals were of one sex and of similar weight. Prior to testing, the tumor cell lines were propagated in BALB/cj mice. Tumor implants were aliquots of a donor pool brei,
In the IP trials, the mean survival time (MST) of the groups of mice was determined, not counting animals surviving at the conclusion of the trial, and the mean lifespan comparison value of % MST(T/C) calculated, which value represents the ratio of treated to control group MST's expressed as a percentage.
For C-26 colon adenocarcinoma, the tumor was implanted into CD2 F1 mice, IP and SC in separate trials. For the C-26 IP trial, the tumor was implanted IP on day 0. The test compound were administered four times a day IP from day 1 to day 9 for a total of nine days. BCNU was administered four times a day on days 1, 5 and 9.

Assay [7] has as its system C-26 colon adenocarcinoma. Put plainly: In vivo activity against C-26 implanted subcutaneously (Example 44). The arrangement: species or system mouse. The settings on record: 10 mg/kg, compound 37 days 1-9, BCNU days 1, 5, 9. The method, then:
as §9, §10
For the C-26 SC trial, the tumor was implanted SC into mice on day 0. The test compound was administered four times a day IP from day 1 to day 9 for a total of nine days. BCNU was administered four times a day on days 1, 5, and 9. The mean tumor masses were determined on day 11 and day 21, and the experiment terminated on day 60. The mean tumor mass (MTM) inhibition value of % MTM(T/C) was calculated, which value represents the ratio of treated to control group MTM's expressed as a percentage.

For the next assay, the system named is P388 ascitic leukemia. As to the kind of experiment: In vivo activity against systemic tumor P388. The arrangement: species or system mouse. The settings on record: 20 mg/kg IP once daily, five days; positive control. As to the method:
Prior to testing, P388 was propagated intraperitoneally in female DBA2 mice. The ascitic tumors were intraperitoneally injected in female B6 D2 F1 mice at a concentration of 10^6 cells per mouse. The mice were treated with antiumor agents administered once daily for five consecutive days, with the antineoplastic 5-fluorouracil used as a positive control.
All drugs were administered intraperitoneally in 5% aqueous dextrose or other suitable diluent. Drug efficacy was evaluated based on prolongation of mean survival time (MST). Improvement of MST was calculated as % MST(T/C), the percent ratio of mean survival times of test (T) versus control (C) mice. Compounds having % MST(T/C) values greater than 125 are considered to have significant activity. The antitumor activity of the two compounds in the P388 systemic leukemia model is illustrated in Table 3 below.

[8] abbreviates: read-out: In Vitro Cytotoxicity (IC50), A549, Table 2, ADR: average of two tests.
Where [9] appears, read: read-out: In Vitro Cytotoxicity (IC50), HT-29, Table 2, ADR: average of two tests.
The mark [10] stands for this setting: read-out: In Vitro Cytotoxicity (IC50), A549, Table 1, three day MTT assay.
[11] abbreviates: read-out: In Vitro Cytotoxicity (IC50), HT-29, Table 1, three day MTT assay.
Where [12] appears, read: 10 mg/kg, compound 37 days 1-9, BCNU days 1, 5, 9.

Broadly, the IC50 is the concentration that inhibits the measured activity by half.

≈ marks a conversion by molar mass, not a printed value. Where “and” joins values, the source holds several entries; their conditions need not be identical. Identical values can stand only once. Counter-ions that a name gives are not always drawn. Like-named read-outs stand apart in the source and are kept apart here.

On to `Cc1ccc2c(c1)-n1cc(C(=O)O)c(=O)c3cc(F)c(N4CCC(N)C4)c(c31)O2` (centres unmarked) [Example 4, 1-(3-aminopyrrolidin-1-yl)-2-fluoro-8-methyl-4-oxo-4H-quino[2,3,4-i,j][1,4]benzoxazine-5-carboxylic acid hydrochloride], for which the concentration for half-maximal inhibition (IC50) in assay [1] (setting [8]) amounted to 0.122 µg/mL; in assay [2] (setting [9]), 0.0431 µg/mL; in assay [3], 0.0384 µg/mL; in assay [4], 0.24 µg/mL; in the assay with B16F10 mouse melanoma it was 0.0221 µg/mL.

Consider `CCC[C@H](N)C(=O)NC1CCN(c2c(F)cc3c(=O)c(C(=O)O)cn4c3c2Oc2cc(C)ccc2-4)C1` (some centres unmarked) [Example 10, 1-(3-norvalylaminopyrrolidin-1-yl)-2-fluoro-9-methyl-4-oxo-4H-quino[2,3,4-i,j][1,4]benzoxazine-5-carboxylic acid hydrochloride], for which the 50% inhibitory concentration (IC50) in assay [1] (setting [8]) worked out at 0.187 µg/mL; in assay [2] (setting [9]) it was 0.0875 µg/mL; in assay [3] it was 0.108 µg/mL; in [4] it was 0.447 µg/mL; in the assay on B16F10 mouse melanoma, 0.0573 µg/mL.

With `CCOC(=O)c1cn2c3c(c(N4CCC(NC(C)=O)C4)c(F)cc3c1=O)Oc1cc(C)ccc1-2` (centres unmarked) [6, step 2, Ethyl 1-(3-acetamidopyrrolidin-1-yl)-2-fluoro-9-methyl-4-oxo-4H-quino[2,3,4-i,j][1,4]benzoxazine-5-carboxylate], the IC50 in assay [1] (setting [10]) turned out to be 1.01 µg/mL (≈ 2.17 µM); in assay [2] (setting [11]), 0.64 µg/mL (≈ 1.37 µM); in [5] (Table 1, three day MTT assay) it was 0.65 µg/mL (≈ 1.4 µM).

Turning to `O=NN(CCCl)C(=O)NCCCl` [BCNU, 1,3-bis(2-chloroethyl)-1-nitrosourea, reference compound], in assay [6] (setting [12]), the “% MST(T/C)” value is reported as 201% and the MST was found to be 41.4. In assay [6] (BCNU 10 mg/kg (footnote b)), the “test animals that survived the trial” value is “One of ten test animals survived the trial”. In addition, in assay [7] (day 11), the “% MTM(T/C)” value worked out at 1% and the MTM amounted to 2 mg. Further, in assay [7] (day 21), the “% MTM(T/C)” value is reported as 7% and the MTM was 244 mg.

Turning to `N[C@H]1CCN(c2c(F)cc3c(=O)c(C(=O)O)cn4c3c2Oc2ccccc2-4)C1` [Example 16, 1((3S)-3-aminopyrrolidin-1-yl)-2-fluoro-4-oxo-4H-quino[2,3,4-i,j][1,4]benzoxazine-5-carboxylic acid hydrochloride], the half-maximal inhibitory concentration (IC50) in assay [1] (setting [8]) worked out at 0.23 µg/mL; in assay [2] (setting [9]) it was 0.055 µg/mL; in assay [3], 0.017 µg/mL; in assay [4], 0.12 µg/mL; in the assay with B16F10 mouse melanoma it was 0.018 µg/mL.

`Cc1ccc2c(c1)Oc1c(N3CC[C@H](N)C3)c(F)cc3c(=O)c(C(=O)O)cn-2c13` [Example 18, 1-((3S)-3-aminopyrrolidin-1-yl)-2-fluoro-9-methyl-4-oxo-4H-quino[2,3,4-i,j][1,4]benzoxazine-5-carboxylic acid hydrochloride]: the IC50 in [1] (setting [8]) worked out at 0.11 µg/mL; in assay [2] (setting [9]) it was 0.04 µg/mL; in [3], 0.047 µg/mL; in assay [4], 0.13 µg/mL; in the assay with B16F10 mouse melanoma, 0.024 µg/mL.

Turning to `N[C@@H]1CCN(c2c(F)cc3c(=O)c(C(=O)O)cn4c3c2Oc2ccccc2-4)C1` [Example 17, 1-((3R)-3-aminopyrroidin-1-yl)-2-fluoro-4-oxo-4H-quino[2,3,4-i,j][1,4]benzoxazine-5-carboxylic acid hydrochloride], the IC50 in [1] (setting [8]) came to 0.042 µg/mL; in [2] (setting [9]), 0.068 µg/mL; in [3] it was 0.021 µg/mL; in [4], 0.1 µg/mL; in the assay on B16F10 mouse melanoma, 0.011 µg/mL.

Take `CCOC(=O)c1cn2c3c(c(N4CCC(NC(C)=O)C4)c(F)cc3c1=O)Oc1cc([N+](=O)[O-])ccc1-2` (centres unmarked) [Example 5, Ethyl 1-(3-acetamidopyrrolidin1-yl)-2-fluoro-9-nitro-4-oxo-4H-quino[2,3,4-i,j][1,4]benzoxazine-5-carboxylate]: the half-maximal inhibitory concentration (IC50) in assay [1] (setting [10]) amounted to 0.13 µg/mL (≈ 0.262 µM); in assay [2] (setting [11]), 0.078 µg/mL (≈ 0.157 µM); in assay [5] (Table 1, three day MTT assay) it was 0.011 µg/mL (≈ 0.0222 µM).

Take `NC1CCN(c2c(F)cc3c(=O)c(C(=O)N4CCOCC4)cn4c3c2Oc2ccccc2-4)C1` (centres unmarked) [Example 29, 1-(3-aminopyrrolidin-1-yl)-2-fluoro-5-(1-morpholinocarbonyl)-4-oxo-4H-quino[2,3,4-i,j][1,4]benzoxazine trifluoracetate salt]: the IC50 was 6 µg/mL in assay [1] (setting [8]); 1.4 µg/mL in [2] (setting [9]); 0.54 µg/mL in assay [3]; 49.4 µg/mL in assay [4]; 0.56 µg/mL in the assay with B16F10 mouse melanoma.

Regarding `O=c1[nH]cc(F)c(=O)[nH]1` [5-Fluorouracil, 5-fluorouracil, reference compound], the “% MST(T/C)” value in the assay on P388 ascitic leukemia was 160% and 186.67%.

For `NC1CCN(c2c(F)cc3c(=O)c(C(=O)O)cn4c3c2Oc2cc(F)ccc2-4)C1` (centres unmarked) [Example 7, 1-(3-aminopyrrolidin-1-yl)-2,9-difluoro-4-oxo-4H-quino[2,3,4-i,j][1,4]benzoxazine-5-carboxylic acid hydrochloride], the concentration for half-maximal inhibition (IC50) was found to be 4.1 µg/mL in [1] (setting [10]); 4.1 µg/mL in [1] (setting [8]); 0.21 µg/mL in assay [2] (setting [11]); 0.2 µg/mL in assay [2] (setting [9]); 0.11 µg/mL in assay [5] (Table 1, three day MTT assay); 0.11 µg/mL in assay [5] (Table 2, ADR value marked *: single test).

The values above are taken from US5624924A, “Quinobenzothiazine antineoplastic agents” (priority 1994, dated 1997).
